This note sets out measurements from publication PMC7026418, “The kinase polypharmacology landscape of clinical PARP inhibitors” (Scientific Reports, 2020).

For one assay, the target named is CSNK2A1 (Homo sapiens, UniProt P68400). Kind of assay: biochemical. More on the design: Reaction Biology HotSpot radiometric 33P-ATP catalytic assay at Km ATP; percent inhibition versus DMSO, mean n=2. To be noted: Km ATP. The source says:
(§1) Unreacted phosphate is removed via washing the filters.

The target of another assay is CSNK2A2 (Homo sapiens, UniProt P19784). The experiment in a line: biochemical. More on the design: Reaction Biology HotSpot radiometric 33P-ATP catalytic assay at Km ATP; percent inhibition versus DMSO, mean n=2. As to conditions: Km ATP.
Text: as §1

The next assay deals with T1, HASPIN (Homo sapiens, UniProt Q8TF76).
T1 sequence (Q8TF76 1-798): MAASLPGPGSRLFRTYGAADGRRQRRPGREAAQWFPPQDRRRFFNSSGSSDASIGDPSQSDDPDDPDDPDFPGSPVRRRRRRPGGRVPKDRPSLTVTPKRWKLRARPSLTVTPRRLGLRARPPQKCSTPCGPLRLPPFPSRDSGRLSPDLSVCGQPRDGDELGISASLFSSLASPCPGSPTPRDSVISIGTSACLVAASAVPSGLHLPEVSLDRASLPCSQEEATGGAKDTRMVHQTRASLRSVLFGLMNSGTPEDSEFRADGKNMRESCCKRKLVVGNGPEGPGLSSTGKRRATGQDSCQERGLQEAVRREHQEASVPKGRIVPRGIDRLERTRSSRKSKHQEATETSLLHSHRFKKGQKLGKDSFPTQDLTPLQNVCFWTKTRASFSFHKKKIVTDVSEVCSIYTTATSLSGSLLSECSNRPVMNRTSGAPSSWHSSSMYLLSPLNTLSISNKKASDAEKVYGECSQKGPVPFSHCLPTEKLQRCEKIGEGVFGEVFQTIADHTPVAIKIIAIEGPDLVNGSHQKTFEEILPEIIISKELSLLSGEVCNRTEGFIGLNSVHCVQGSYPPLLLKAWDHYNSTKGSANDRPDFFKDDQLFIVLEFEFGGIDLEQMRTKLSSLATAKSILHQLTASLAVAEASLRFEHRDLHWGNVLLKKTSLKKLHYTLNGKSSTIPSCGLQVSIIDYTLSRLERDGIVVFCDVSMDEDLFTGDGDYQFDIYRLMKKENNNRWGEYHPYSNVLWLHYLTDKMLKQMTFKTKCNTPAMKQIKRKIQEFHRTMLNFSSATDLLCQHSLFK
The experiment in a line: biochemical. More on the design: Reaction Biology HotSpot radiometric 33P-ATP catalytic assay at Km ATP; percent inhibition versus DMSO, mean n=2. As to conditions: Km ATP.
Text: as §1

A further assay concerns the target HIPK3 (Homo sapiens, UniProt Q9H422). Kind of assay: biochemical. Also on record: Reaction Biology HotSpot radiometric 33P-ATP catalytic assay at Km ATP; percent inhibition versus DMSO, mean n=2. To be noted: Km ATP.
Text: as §1

Another assay concerns the target T2, LATS2 (Homo sapiens, UniProt Q9NRM7).
T2 sequence (Q9NRM7 1-1088): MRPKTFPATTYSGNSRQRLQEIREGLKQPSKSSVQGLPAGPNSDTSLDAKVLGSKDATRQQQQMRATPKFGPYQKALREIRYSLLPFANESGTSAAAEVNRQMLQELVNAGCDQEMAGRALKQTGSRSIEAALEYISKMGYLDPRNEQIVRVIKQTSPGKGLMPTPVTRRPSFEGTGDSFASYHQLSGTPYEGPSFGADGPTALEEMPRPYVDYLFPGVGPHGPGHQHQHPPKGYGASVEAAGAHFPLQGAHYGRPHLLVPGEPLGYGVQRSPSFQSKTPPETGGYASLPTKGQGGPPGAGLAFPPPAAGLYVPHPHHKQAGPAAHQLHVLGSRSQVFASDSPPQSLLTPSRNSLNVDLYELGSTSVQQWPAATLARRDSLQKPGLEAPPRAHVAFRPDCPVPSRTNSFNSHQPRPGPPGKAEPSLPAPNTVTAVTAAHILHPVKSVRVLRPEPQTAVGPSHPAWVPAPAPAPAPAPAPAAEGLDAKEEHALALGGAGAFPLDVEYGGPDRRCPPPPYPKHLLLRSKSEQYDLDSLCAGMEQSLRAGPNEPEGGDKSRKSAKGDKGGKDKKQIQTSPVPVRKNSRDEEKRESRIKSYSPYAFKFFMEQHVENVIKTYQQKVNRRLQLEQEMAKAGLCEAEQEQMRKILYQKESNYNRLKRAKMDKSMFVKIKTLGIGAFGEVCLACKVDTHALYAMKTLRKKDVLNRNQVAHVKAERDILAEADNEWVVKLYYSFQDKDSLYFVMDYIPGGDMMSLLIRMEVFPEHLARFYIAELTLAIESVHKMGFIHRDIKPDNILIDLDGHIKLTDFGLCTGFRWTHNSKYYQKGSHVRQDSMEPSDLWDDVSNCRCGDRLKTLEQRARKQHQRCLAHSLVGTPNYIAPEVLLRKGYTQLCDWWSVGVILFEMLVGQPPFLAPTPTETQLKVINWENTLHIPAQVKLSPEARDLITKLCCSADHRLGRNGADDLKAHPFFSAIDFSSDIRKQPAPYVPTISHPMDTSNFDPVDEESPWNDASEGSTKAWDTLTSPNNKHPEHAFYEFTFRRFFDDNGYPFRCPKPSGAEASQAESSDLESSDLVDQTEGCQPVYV
The experiment in a line: biochemical. Also on record: Reaction Biology HotSpot radiometric 33P-ATP catalytic assay at Km ATP; percent inhibition versus DMSO, mean n=2. As to conditions: Km ATP.
Text: as §1

Another assay addresses T3, Aurora B (Homo sapiens, UniProt Q96GD4).
T3 construct: gene AURKB
Kind of assay: biochemical. To be noted: read-out: Niraparib.

In another assay the target is PIM1 (Homo sapiens, UniProt P11309). The experiment in a line: KinomeScan active site-directed competition binding at […]; […] catalytic inhibition at […] (n = […]).
For the next assay, the target named is CDK4-cyclinD3 (Homo sapiens, UniProt P11802). Kind of assay: biochemical. More on the design: Reaction Biology HotSpot radiometric 33P-ATP catalytic assay at Km ATP; percent inhibition versus DMSO, mean n=2. As to conditions: Km ATP.
Text: as §1

Regarding `NC(=O)c1cccc2cn(-c3ccc([C@@H]4CCCNC4)cc3)nc12` [Niraparib], the inhibition at 1 µM was 12% against CSNK2A1; -1% against CSNK2A2; 10% against HASPIN; 5% at HIPK3; 17% on LATS2; 34% on Aurora B.
As to `CNCc1ccc(-c2[nH]c3cc(F)cc4c3c2CCNC4=O)cc1` [Rucaparib], at PIM1, the “KinomeScan active site-directed competition binding at 10 μM; 27% catalytic inhi” value was “recover most of the previously known off-targets of rucaparib, including the most potent known interactions with PIM1 and DYRK1A”. Moreover, the inhibition at 1 µM at CDK4-cyclinD3 was 10%; on CSNK2A1, 21%; on CSNK2A2, 17%; against HASPIN, -6%; against HIPK3, -12%.
